Measured values published in PubChem BioAssay (NCI).
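In this assay, cells in 96-well plates receive the compound at five concentrations for 48 hours. Endpoints are linearly interpolated between the surrounding concentrations. TGI: total growth inhibition.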

What was measured:
Assay in all cases: NCI anticancer screen, dose series, 48 h
PC-3 prostate = system: PC-3 prostate
HS 578T breast = system: HS 578T breast
SF-268 CNS = system: SF-268 CNS
NCI-H522 lung = system: NCI-H522 lung
NCI-H226 lung = system: NCI-H226 lung
ACHN renal = system: ACHN renal
SK-MEL-2 melanoma = system: SK-MEL-2 melanoma
RPMI-8226 leukemia = system: RPMI-8226 leukemia
NCI-H460 lung = system: NCI-H460 lung
COLO 205 colon = system: COLO 205 colon
A498 renal = system: A498 renal
DU-145 prostate = system: DU-145 prostate
LOX IMVI melanoma = system: LOX IMVI melanoma
OVCAR-8 ovarian = system: OVCAR-8 ovarian
U251 CNS = system: U251 CNS
EKVX NSCLC = system: EKVX NSCLC
IGROV1 ovarian = system: IGROV1 ovarian
HOP-92 NSCLC = system: HOP-92 NSCLC
HCT-116 colon = system: HCT-116 colon
MCF7 breast = system: MCF7 breast
OVCAR-4 ovarian = system: OVCAR-4 ovarian
SR leukemia = system: SR leukemia
HCT-15 colon = system: HCT-15 colon
SN12C renal = system: SN12C renal
M14 melanoma = system: M14 melanoma
CAKI-1 renal = system: CAKI-1 renal
OVCAR-3 ovarian = system: OVCAR-3 ovarian
SK-OV-3 ovarian = system: SK-OV-3 ovarian
786-0 renal = system: 786-0 renal
SNB-75 CNS = system: SNB-75 CNS
A549 NSCLC = system: A549 NSCLC
UO-31 renal = system: UO-31 renal
NCI/ADR-RES ovarian = system: NCI/ADR-RES ovarian
UACC-257 melanoma = system: UACC-257 melanoma
MDA-MB-231 breast = system: MDA-MB-231 breast
HCC-2998 colon = system: HCC-2998 colon
KM12 colon = system: KM12 colon
SNB-19 CNS = system: SNB-19 CNS
K-562 leukemia = system: K-562 leukemia
RXF 393 renal = system: RXF 393 renal
MALME-3M melanoma = system: MALME-3M melanoma
TK-10 renal = system: TK-10 renal
SF-295 CNS = system: SF-295 CNS
MDA-N = system: MDA-N
SF-539 CNS = system: SF-539 CNS
HT29 colon = system: HT29 colon
SW-620 colon = system: SW-620 colon
HOP-62 NSCLC = system: HOP-62 NSCLC
NCI-H23 lung = system: NCI-H23 lung
SK-MEL-28 melanoma = system: SK-MEL-28 melanoma
T-47D breast = system: T-47D breast
MDA-MB-435 = system: MDA-MB-435
OVCAR-5 ovarian = system: OVCAR-5 ovarian
CCRF-CEM leukemia = system: CCRF-CEM leukemia
BT-549 breast = system: BT-549 breast
UACC-62 melanoma = system: UACC-62 melanoma
SK-MEL-5 melanoma = system: SK-MEL-5 melanoma

## Cc1cc2nc(C#N)c(N3CCN(c4ccc([N+](=O)[O-])cc4)CC3)nc2cc1C
PC-3 prostate
  TGI: > 100 µM
HS 578T breast
  TGI: 95.5 µM
SF-268 CNS
  TGI: > 100 µM
NCI-H522 lung
  TGI: > 100 µM
NCI-H226 lung
  TGI: > 100 µM
ACHN renal
  TGI: > 100 µM
SK-MEL-2 melanoma
  TGI: > 100 µM
RPMI-8226 leukemia
  TGI: > 100 µM
NCI-H460 lung
  TGI: > 100 µM
COLO 205 colon
  TGI: > 100 µM
A498 renal
  TGI: > 100 µM
DU-145 prostate
  TGI: > 100 µM
LOX IMVI melanoma
  TGI: > 100 µM
OVCAR-8 ovarian
  TGI: > 100 µM
U251 CNS
  TGI: > 100 µM
EKVX NSCLC
  TGI: > 100 µM
IGROV1 ovarian
  TGI: > 100 µM
HOP-92 NSCLC
  TGI: > 100 µM
HCT-116 colon
  TGI: > 100 µM
MCF7 breast
  TGI: > 100 µM
OVCAR-4 ovarian
  TGI: > 100 µM
SR leukemia
  TGI: > 100 µM
HCT-15 colon
  TGI: > 100 µM
SN12C renal
  TGI: > 100 µM
M14 melanoma
  TGI: > 100 µM
CAKI-1 renal
  TGI: > 100 µM
OVCAR-3 ovarian
  TGI: > 100 µM
SK-OV-3 ovarian
  TGI: > 100 µM
786-0 renal
  TGI: > 92.9 µM
SNB-75 CNS
  TGI: > 100 µM
A549 NSCLC
  TGI: > 100 µM
UO-31 renal
  TGI: > 100 µM
NCI/ADR-RES ovarian
  TGI: > 100 µM
UACC-257 melanoma
  TGI: > 100 µM
MDA-MB-231 breast
  TGI: > 100 µM
HCC-2998 colon
  TGI: > 100 µM
KM12 colon
  TGI: > 100 µM
SNB-19 CNS
  TGI: > 100 µM
K-562 leukemia
  TGI: > 100 µM
RXF 393 renal
  TGI: > 100 µM
MALME-3M melanoma
  TGI: > 100 µM
TK-10 renal
  TGI: > 100 µM
SF-295 CNS
  TGI: > 100 µM
MDA-N
  TGI: > 100 µM
SF-539 CNS
  TGI: 81.2 µM
HT29 colon
  TGI: > 100 µM
SW-620 colon
  TGI: > 100 µM
HOP-62 NSCLC
  TGI: > 100 µM
NCI-H23 lung
  TGI: > 100 µM
SK-MEL-28 melanoma
  TGI: > 100 µM
T-47D breast
  TGI: > 100 µM
MDA-MB-435
  TGI: > 100 µM
OVCAR-5 ovarian
  TGI: > 100 µM
CCRF-CEM leukemia
  TGI: > 100 µM
BT-549 breast
  TGI: > 100 µM
UACC-62 melanoma
  TGI: > 100 µM
SK-MEL-5 melanoma
  TGI: > 100 µM
